Measured values reported in patent US10562857B2 (AFASCI, Inc., priority 2015, dated 2020).
Where two headings read alike, the source gives them in different places.

Biological target: T1, Cav3.2 channel (Homo sapiens, UniProt O95180)
T1 construct: expressed in transfected cells; host or cells: HEK-293, tetracycline inducible expression system (Invitrogen)
Experiment: Whole-cell patch clamp of T-type Cav3.2 channel expressed in HEK293 cells
Type: cell-based
Details: for IC50: Table 1, tested at at least 4 concentrations, read-out: IC50
Procedure: Cav3.1, Cav3.2 or Cav3.3 channels were expressed in human embryonic kidney (HEK)-293 cells using a tetracycline inducible expression system (Invitrogen). Cells were maintained in 25 cm^2 tissue culture flasks at 37° C., 5% CO2, and 100% relative humidity in D-MEM/F12 (Dulbecco's Modified Eagle Medium/Nutrient Mixture F-12; Gibco) supplemented with fetal bovine serum (FBS, 10% v/v), sodium pyruvate (0.5 mM, Gibco), penicillin-streptomycin (100 U/mL, 100 μg/mL) and Geneticin® Selective antibiotic (G418; 0.5 mg/mL). Cells were detached from the flask base using a non-enzymatic cell dissociation solution (Cellstripper, Corning), removed and re-seeded on to poly-D-lysine coated glass coverslips in 35 mm dishes. Cells in dishes were further supplemented with G418 at a final concentration of 1 mg/mL and after 24 hours, expression of Cav3.2 was induced with 1 μg/mL tetracycline. The medium for the HEK-293 cells was composed of D-MEM/F-12 (Dulbecco's Modified Eagle Medium/Nutrient Mixture F-12; Gibco, #11330-032) and 15 mM HEPES buffer, with L-glutamine and pyridoxine hydrochloride. It was supplemented with FBS (Fetal Bovine Serum), P/S (Penicillin/Streptomycin) (Gibco, #15140-122), and sodium pyruvate 100 mM (Gibco, #11360-070). At least 24 hours before the assay, expression of the alpha-2-delta-1 and beta2a subunits of the calcium channel were induced with 1 ug/mL tetracycline.
Whole-cell voltage clamp recordings were performed on rat or mouse DRG neurons within 2 days after acutely dissociation or cultured HEK293 cells expressing T-type channels (encoded by Cav3.1, Cav3.2 or Cav3.3 channels). All experiments were performed at room temperature (around 21° C.). Whole-cell currents were recorded using a MultiClamp 700B amplifier and analyzed offline with pCLAMP10.4 software (Molecular Devices, LLC, Sunnyvale Calif., USA). To record calcium currents in DRG and HEK293 cells, the external solution was composed (in mM) of 115 choline-Cl, 30 TEA-Cl, 2 CaCl2, 10 glucose and 10 HEPES (pH 7.3-7.4 adjusted with TEA-OH; osmolality verified as 295 mOsm/kg). The internal solution was composed (in mM) of 125 CsCl, 10 HEPES (acid), 10 EGTA (ethylene glycol tetraacetic acid), 1 CaCl2, 1 MgCl2, 4 MgATP and 0.3 MgGTP (pH 7.3-7.4 adjusted with CsOH; osmolality verified as 295 mOsm/kg). Since the sodium ions were absent in the external solution, tetrodoctoxin was not needed. Calcium currents were recorded at a holding potential of −100 mV and then depolarized to −30 mV for 100 ms to activate either Cav3.1, Cav3.2, or Cav3.3 expressed in HEK cells. An interpulse interval of 10 seconds allowed the channel recovery from inactivation, and achieved stable current recordings. To record sodium (Na^+) currents in DRG neurons, the external solution used the modified Krebs solution specified above. The internal solution was composed (in mM) of 120 CsF, 10 HEPES, 11 EGTA, 1 CaCl2, 1 MgCl2, 10 TEA-Cl, 4 MgATP and 0.3 MgGTP (pH 7.3-7.4 adjusted with CsOH). […] To record potassium currents in DRG neurons, the external solution used the modified Kreb's solution specified above. The internal solution was composed (in mM) of 65 KCl, 80 KF, 5 KOH, 10 EGTA, 2 MgATP (pH 7.3-7.4 adjusted with KOH). Recording electrodes were fabricated using a P-87 puller (Sutter Instrument Co., Novato, Calif., USA). The tip of resistance was 3-4 MQ in bath and the series resistance was less than 10 MΩ after whole cell configuration. All reagents were purchased from Sigma unless specified otherwise. Test compounds were usually applied via a rapid solution exchange system with 8 fine polyplastic tubings (100 μm, OD) glued in a holder in parallel and located closely to the recorded cells. […]

[1] = HEK293, Table 1 primary screening
[2] = HEK293, Table 1 primary screening, 3 μM as indicated in cell, read-out: % inhibition at 3 μM

T1 sequence (O95180 whole entry): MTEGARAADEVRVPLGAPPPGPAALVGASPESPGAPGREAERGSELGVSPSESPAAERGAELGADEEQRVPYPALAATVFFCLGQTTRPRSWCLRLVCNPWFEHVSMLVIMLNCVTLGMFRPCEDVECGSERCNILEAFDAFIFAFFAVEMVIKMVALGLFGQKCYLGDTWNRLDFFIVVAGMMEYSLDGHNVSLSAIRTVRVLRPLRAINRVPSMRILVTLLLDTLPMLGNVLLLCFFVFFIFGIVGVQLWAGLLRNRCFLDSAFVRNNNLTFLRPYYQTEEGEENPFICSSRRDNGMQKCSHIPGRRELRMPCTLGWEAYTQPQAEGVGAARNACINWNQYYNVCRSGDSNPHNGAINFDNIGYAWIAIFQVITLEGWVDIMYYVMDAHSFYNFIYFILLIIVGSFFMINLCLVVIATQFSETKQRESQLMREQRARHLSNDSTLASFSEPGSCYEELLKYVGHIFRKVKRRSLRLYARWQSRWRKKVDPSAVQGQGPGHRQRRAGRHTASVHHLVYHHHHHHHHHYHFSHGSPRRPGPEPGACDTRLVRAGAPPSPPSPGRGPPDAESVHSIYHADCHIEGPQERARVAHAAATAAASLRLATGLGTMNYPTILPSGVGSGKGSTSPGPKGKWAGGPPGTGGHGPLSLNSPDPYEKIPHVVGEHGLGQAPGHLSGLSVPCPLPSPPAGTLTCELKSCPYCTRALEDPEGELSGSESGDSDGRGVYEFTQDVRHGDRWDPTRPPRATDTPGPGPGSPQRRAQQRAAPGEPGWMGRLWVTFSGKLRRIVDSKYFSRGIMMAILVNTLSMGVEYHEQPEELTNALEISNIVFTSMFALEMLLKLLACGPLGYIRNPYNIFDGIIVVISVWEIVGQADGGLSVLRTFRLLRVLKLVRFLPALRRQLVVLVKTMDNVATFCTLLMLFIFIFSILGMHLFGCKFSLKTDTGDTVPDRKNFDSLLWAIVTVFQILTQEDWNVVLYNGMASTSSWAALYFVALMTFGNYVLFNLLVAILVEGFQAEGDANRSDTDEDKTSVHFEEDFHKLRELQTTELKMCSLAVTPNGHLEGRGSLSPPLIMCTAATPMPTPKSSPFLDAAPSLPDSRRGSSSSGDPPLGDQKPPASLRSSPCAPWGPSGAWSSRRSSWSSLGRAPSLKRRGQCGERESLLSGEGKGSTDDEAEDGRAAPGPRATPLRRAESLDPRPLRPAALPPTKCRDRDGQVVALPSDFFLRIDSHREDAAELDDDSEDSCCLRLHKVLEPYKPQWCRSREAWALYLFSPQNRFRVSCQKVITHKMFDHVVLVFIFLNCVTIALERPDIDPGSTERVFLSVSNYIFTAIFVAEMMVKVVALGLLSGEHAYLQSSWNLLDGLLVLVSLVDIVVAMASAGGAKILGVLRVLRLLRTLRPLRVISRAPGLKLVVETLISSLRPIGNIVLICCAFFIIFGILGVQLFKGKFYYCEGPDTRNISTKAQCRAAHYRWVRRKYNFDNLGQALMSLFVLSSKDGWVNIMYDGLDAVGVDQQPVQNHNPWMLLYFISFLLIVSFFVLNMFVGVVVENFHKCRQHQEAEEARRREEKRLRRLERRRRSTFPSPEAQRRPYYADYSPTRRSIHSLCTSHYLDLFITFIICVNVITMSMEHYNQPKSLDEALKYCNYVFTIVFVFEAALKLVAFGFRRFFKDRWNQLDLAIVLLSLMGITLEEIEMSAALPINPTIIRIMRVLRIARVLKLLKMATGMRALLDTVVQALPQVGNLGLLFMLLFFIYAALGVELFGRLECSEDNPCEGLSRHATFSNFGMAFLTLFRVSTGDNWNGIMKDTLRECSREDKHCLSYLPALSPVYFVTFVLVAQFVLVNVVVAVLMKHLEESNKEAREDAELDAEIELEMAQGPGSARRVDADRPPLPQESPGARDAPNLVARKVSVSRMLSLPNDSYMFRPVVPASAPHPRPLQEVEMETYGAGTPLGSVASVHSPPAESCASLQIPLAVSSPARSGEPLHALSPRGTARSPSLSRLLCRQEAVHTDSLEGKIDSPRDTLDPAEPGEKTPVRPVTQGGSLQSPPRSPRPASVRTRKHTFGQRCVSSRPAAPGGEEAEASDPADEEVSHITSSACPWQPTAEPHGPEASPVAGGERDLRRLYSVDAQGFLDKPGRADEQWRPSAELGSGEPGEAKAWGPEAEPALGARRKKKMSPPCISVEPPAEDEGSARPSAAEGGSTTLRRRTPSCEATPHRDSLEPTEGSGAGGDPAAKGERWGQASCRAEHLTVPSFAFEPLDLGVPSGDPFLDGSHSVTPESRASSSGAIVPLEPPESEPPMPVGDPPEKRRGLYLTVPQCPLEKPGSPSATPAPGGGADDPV

SMILES | inhibition at 1 µM [1] [%] | IC50 [nM] | further results
COc1cccc(C(=O)NCC2(C)CCN(CC(=O)NC(C)(C)C)CC2)c1 [Example 108, N-((1-(2-(tert-butylamino)-2-oxoethyl)-4-methylpiperidin-4-yl)methyl)-3-methoxybenzamide] | 53 | – | –
CC(C)(C)CCN1CCC2(CC1)CC2NC(=O)c1ccc(Cl)cc1Cl (stereo not shown) [Example 23, 2,4-Dichloro-N-(6-(3,3-dimethylbutyl)-6-azaspiro[2.5]octan-1-yl)benzamide] | 69 | – | –
CN(C(=O)c1cc(Cl)cc(Cl)c1)C1CC12CCN(CCC(C)(C)C)CC2 (stereo not shown) [Example 54, 3,5-Dichloro-N-(6-(3,3-dimethylbutyl)-6-azaspiro[2.5]octan-1-yl)-N-methylbenzamide] | – | 230 | –
COc1cc(OC)cc(C(=O)NC2CC23CCN(CCC(C)(C)C)CC3)c1 (stereo not shown) [Example 33, N-(6-(3,3-Dimethylbutyl)-6-azaspiro[2.5]octan-1-yl)-3,5-dimethoxybenzamide] | 63 | – | –
O=C(NC1CC12CCN(CCc1ccccc1)CC2)c1cc(Cl)cc(Cl)c1 (stereo not shown) [Example 13, 3,5-Dichloro-N-(6-phenethyl-6-azaspiro[2.5]octan-1-yl)benzamide] | – | 30 | –
CC(C)(C)CCN1CCC2(CC1)CC2NC(=O)c1cccc(C(F)(F)F)c1 (stereo not shown) [Example 29, N-(6-(3,3-Dimethylbutyl)-6-azaspiro[2.5]octan-1-yl)-3-(trifluoromethyl)benzamide] | 69 | – | –
O=C(NC1CC12CCN(Cc1ccccc1)CC2)c1ccccc1 (stereo not shown) [Example 5, N-(6-Benzyl-6-azaspiro[2.5]octan-1-yl)benzamide] | – | – | inhibition at 3 µM [2]: 44%
O=C(CCc1ccc(Cl)c(Cl)c1)Nc1nnc(-c2ccc(Cl)s2)o1 [Example 120, N-(5-(5-Chlorothiophen-2-yl)-1,3,4-oxadiazol-2-yl)-3-(3,4-dichlorophenyl)propanamide] | 9.2 | – | –
CC(C)(C)C(O)CN1CCC2(CC1)CC2NC(=O)c1cc(F)cc(Cl)c1 (single isomer, unassigned) [Example 135, 3-Chloro-5-fluoro-N-((1R)-6-(2-hydroxy-3,3-dimethylbutyl)-6-azaspiro[2.5]octan-1-yl)benzamide or 3-Chloro-5-fluoro-N-((1S)-6-(2-hydroxy-3,3-dimethylbutyl)-6-azaspiro [2.5]octan-1-yl) benzamide] | – | 210 | –
CC(C)(C)NC(=O)CN1CCC2(CC1)CC2NC(=O)c1ccc(Cl)c(Cl)c1 (stereo not shown) [Example 9, N-(6-(2-(tert-Butylamino)-2-oxoethyl)-6-azaspiro[2.5]octan-1-yl)-3,4-dichlorobenzamide] | – | 80 | –
CC(C)(C)C(O)CN1CCC2(CC1)CC2NC(=O)c1cc(Cl)cc(Cl)c1 (stereo not shown) [Example 58, 3,5-Dichloro-N-(6-(2-hydroxy-3,3-dimethylbutyl)-6-azaspiro[2.5]octan-1-yl)benzamide] | – | 220 | –
O=C(CN1CCC(CNC(=O)c2ccc(O)cc2)CC1)Nc1ccccc1 [Example 102, 4-Hydroxy-N-((1-(2-oxo-2-(phenylamino)ethyl)piperidin-4-yl)methyl)benzamide] | 47 | – | –
CC(C)(C)CCN1CCC2(CC1)CC2NC(=O)c1ccc(Cl)c(Cl)c1 (stereo not shown) [Example 7, 3,4-Dichloro-N-(6-(3,3-dimethylbutyl)-6-azaspiro[2.5]octan-1-yl)benzamide] | – | 120 | –
CC(C)(C)CCN1CCC2(CC1)CC2NC(=O)c1ccccc1 (stereo not shown) [Example 2, N-(6-(3,3-Dimethylbutyl)-6-azaspiro[2.5]octan-1-yl)benzamide] | – | – | inhibition at 3 µM [2]: 55.3%
CC(C)(C)CCN1CCC2(CC1)CC2NC(=O)c1cc(C(F)(F)F)ccc1Cl (stereo not shown) [Example 142, 2-Chloro-N-(6-(3,3-dimethylbutyl)-6-azaspiro[2.5]octan-1-yl)-5-(trifluoromethyl)benzamide] | – | 90 | –
O=S(=O)(NC1CC12CCN(CCc1ccccc1)CC2)c1cc(Cl)cc(Cl)c1 (stereo not shown) [Example 52, 3,5-Dichloro-N-(6-phenethyl-6-azaspiro[2.5]octan-1-yl)benzenesulfonamide] | 29 | – | –
O=C(NC1CC12CCN(CC(O)c1ccc(C(F)(F)F)cc1)CC2)c1cc(Cl)cc(Cl)c1 (stereo not shown) [Example 59, 3,5-Dichloro-N-(6-(2-hydroxy-2-(4-(trifluoromethyl)phenyl)ethyl)-6-azaspiro[2.5]octan-1-yl)benzamide] | – | 70 | –
CC(C)CN1CCC2(CC1)CC2NC(=O)c1ccccc1 (stereo not shown) [Example 1, N-(6-Isobutyl-6-azaspiro[2.5]octan-1-yl)benzamide] | – | – | inhibition at 3 µM (HEK293, read-out: % inhibition at 3 μM): 15.3%
O=C(NC1CC12CCN(CCc1ccc(F)cc1)CC2)c1cc(Cl)cc(Cl)c1 (stereo not shown) [Example 40, 3,5-Dichloro-N-(6-(4-fluorophenethyl)-6-azaspiro[2.5]octan-1-yl)benzamide] | – | 160 | –
CC(C)(C)NC(=O)CN1CCC2(CC1)CC2CNc1cc(Cl)cc(Cl)c1 (stereo not shown) [Example 93] | – | 100 | –
O=C(NC1CC12CCN(CC1CCOCC1)CC2)c1cc(Cl)cc(Cl)c1 (stereo not shown) [Example 46, 3,5-Dichloro-N-(6-((tetrahydro-2H-pyran-4-yl)methyl)-6-azaspiro[2.5]octan-1-yl)benzamide] | – | 150 | –
O=C(NCC1CCN(CCC2CC2)CC1)c1ccc(Cl)s1 [Example 97, 5-Chloro-N-((1-(2-cyclopropylethyl)piperidin-4-yl)methyl)thiophene-2-carboxamide] | 33 | – | –
CC(C)(C)CCN1CCC2(CC1)CC2NC(=O)Cc1cc(C(F)(F)F)cc(C(F)(F)F)c1 (stereo not shown) [Example 31, 2-(3,5-Bis(trifluoromethyl)phenyl)-N-(6-(3,3-dimethylbutyl)-6-azaspiro[2.5]octan-1-yl)acetamide] | – | 80 | –
O=C(NC1CC12CCN(CC(O)c1ccc(F)cc1)CC2)c1cc(F)cc(Cl)c1 (single isomer, unassigned) [Example 139, 3-Chloro-5-fluoro-N-((1R)-6-(2-(4-fluorophenyl)-2-hydroxyethyl)-6-azaspiro[2.5]octan-1-yl)benzamide or 3-Chloro-5-fluoro-N-((1S)-6-(2-(4-fluorophenyl)-2-hydroxyethyl)-6-azaspiro[2.5]octan-1-yl)benzamide] | – | 90 | –
Cc1cc(C(=O)Nc2nnc(-c3ccccc3)o2)no1 [Example 122, 5-Methyl-N-(5-phenyl-1,3,4-oxadiazol-2-yl)isoxazole-3-carboxamide] | 14.9 | – | –
O=C(N[C@@H]1CC12CCN(CC(O)c1ccc(C(F)(F)F)cc1)CC2)c1cc(F)cc(Cl)c1 (single isomer, unassigned) [Example 137, 3-Chloro-5-fluoro-N-((1R)-6-(2-hydroxy-2-(4-(trifluoromethyl)phenyl)ethyl)-6-azaspiro[2.5]octan-1-yl)benzamide or 3-Chloro-5-fluoro-N-((1S)-6-(2-hydroxy-2-(4-(trifluoromethyl)phenyl)ethyl)-6-azaspiro[2.5]octan-1-yl)benzamide] | – | 70 | –
CC(C)(C)CCN1CCC2(CC1)CC2NC(=O)c1ccc(Cl)cc1 (stereo not shown) [Example 22, 4-Chloro-N-(6-(3,3-dimethylbutyl)-6-azaspiro[2.5]octan-1-yl)benzamide] | 50 | – | –
O=C(NCC1CC12CCN(CCc1ccccc1)CC2)c1cc(Cl)cc(Cl)c1 (stereo not shown) [Example 89, 3,5-Dichloro-N-((6-phenethyl-6-azaspiro[2.5]octan-1-yl)methyl)benzamide] | – | 90 | –
